Source: patent publication US7659298B2, “Pyrazole derivatives and use thereof as orexin receptor antagonists” (sanofi-aventis, priority 2003, dated 2010)
pIC50: −log10 of the molar value. Where no end group is shown, it is not given here.

How the values were obtained:
orexin-1 receptors = settings: cited from earlier work
[1] = target: T1, human recombinant orexin-2 (hr-OX-2) receptor (Homo sapiens, UniProt O43614); test: hr-125I-orexin-A radioligand competition binding, orexin-2 receptor; settings: read-out: Orex-2 IC50
T1 construct: expressed in transfected cells; host or cells: CHO cells (CHO-hr-OX-2), purified plasma membrane fraction
T1 sequence (O43614 1-444): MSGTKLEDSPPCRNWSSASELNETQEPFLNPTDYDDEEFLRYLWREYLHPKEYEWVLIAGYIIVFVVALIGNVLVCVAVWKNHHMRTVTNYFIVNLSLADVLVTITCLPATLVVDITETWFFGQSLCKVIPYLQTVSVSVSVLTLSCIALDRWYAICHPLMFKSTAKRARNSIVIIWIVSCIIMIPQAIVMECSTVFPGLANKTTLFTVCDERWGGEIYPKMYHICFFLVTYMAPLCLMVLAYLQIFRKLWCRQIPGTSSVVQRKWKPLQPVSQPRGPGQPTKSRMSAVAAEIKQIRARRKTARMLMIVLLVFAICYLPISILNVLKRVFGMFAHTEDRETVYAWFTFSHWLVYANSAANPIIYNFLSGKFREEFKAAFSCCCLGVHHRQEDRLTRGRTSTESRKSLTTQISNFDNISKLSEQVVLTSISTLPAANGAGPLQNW
Method: (§1) In vitro radioligand binding assays were used for determination of the affinities of the compounds for both the orexin-1 and orexin-2 receptors.
(§2) In the frame of hr-^125I-orexin-A radioligand competition (displacement) experiments a fixed concentration of hr-^125I-orexin-A is incubated with increasing concentrations of unlabeled test compound in the presence of highly purified plasmamembranes bearing either the human recombinant orexin-1 (hr-OX-1) or the human recombinant orexin-2 (hr-OX-2) receptors. Specific binding of hr-^125I-orexin-A to plasmamembranes is measured at each concentrations of the unlabeled compound and thus a competition curve is generated. The concentration of unlabeled compound displacing 50% of specific binding (IC50) is calculated. In case of competitive interaction the binding affinity constant of the unlabeled compound (KI) is calculated according to the Cheng-Prusoff equation ([…]. Affinity of unlabeled compound for the receptor is equal to 1/KI.
(§3) Culturing the Chinese hamster ovarian cells expressing human recombinant orexin-1 or orexin-2 receptor proteins (CHO-hr-OX-1 or CHO-hr-OX-2 cells) was carried out in cell culture medium (MEM medium, supplemented with 40 mg/l prolin, 20 mg/l gentamycin, 300 mg/l geneticin, 10% dialysed fetal calf serum).
(§4) Adherent cells were plated into Greiner flasks (175 cm^2). 4-6 days later culture medium was removed and cells were scarped in calcium- and magnesium-free phosphate buffered saline (PBS, 20 ml/flask). The cell suspension was centrifuged at 1,000 g for 5 minutes (4° C.). The resulting pellet was resuspended and homogenized with a teflon pestle (4° C.), then layered onto a discontinous sucrose gradient and centrifuged at 105,000 g. […]
(§5) Serial dilution series were prepared from stock solutions (100% DMSO) with binding assay buffer in such a way that each samples contained a final concentration of 1% of DMSO in the receptor binding reaction mixture. […] The radioactivity remained on the filter was counted in a gamma counter (Wallac Automatic Gamma Counter 1470 Wizard).

[2] = target: T2, human recombinant orexin-1 (hr-OX-1) receptor (Homo sapiens, UniProt O43613); test: hr-125I-orexin-A radioligand competition binding, orexin-1 receptor; settings: read-out: Orex-1 IC50
T2 construct: expressed in transfected cells; host or cells: CHO cells (CHO-hr-OX-1), purified plasma membrane fraction
T2 sequence (O43613 1-425): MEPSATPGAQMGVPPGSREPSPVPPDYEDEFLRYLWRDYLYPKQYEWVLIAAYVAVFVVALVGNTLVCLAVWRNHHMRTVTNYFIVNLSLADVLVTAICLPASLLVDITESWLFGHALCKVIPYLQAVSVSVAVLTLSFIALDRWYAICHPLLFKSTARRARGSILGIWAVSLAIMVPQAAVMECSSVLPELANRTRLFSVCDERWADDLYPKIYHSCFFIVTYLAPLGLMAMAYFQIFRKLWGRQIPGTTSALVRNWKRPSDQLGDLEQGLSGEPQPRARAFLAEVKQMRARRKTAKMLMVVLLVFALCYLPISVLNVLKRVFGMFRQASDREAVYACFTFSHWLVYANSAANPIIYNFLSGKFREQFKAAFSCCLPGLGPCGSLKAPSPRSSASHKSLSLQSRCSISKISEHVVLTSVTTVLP
Method: as §1, §2, §3, §4, §5

Compound	melting point [°C]	pIC50 [1]	pIC50 [2]	fold more effective on the orexin-1 receptors compared to orexin B (orexin-1 receptors)
orexin A: "Orexin A consists of 33 aminoacid residues with two intramolecular disulphide bridges" (QPLPDCCRQKTCSCRLYELLHGAGNHAAGILTL; disulfide (positions not given here); ends not checked; UniProt O43612 34-66, looked up)	–	–	–	10-50 fold
Cn1nc(-c2ccccc2)c(CSc2ccccc2C(=O)Nc2ccc3ccccc3c2)c1Cl	–	6.81	7.48	–
Cn1nc(-c2ccncc2)c(COc2ccccc2C(=O)Nc2cnc3ccccc3c2)c1Cl [2-(5-Chloro-1-methyl-3-pyridin-4-yl-1H-pyrazol-4-ylmethoxy)-N-quinolin-3-ylbenzamide]	–	5.96	7.29	–

Further lines, with some results ahead:

melting point [°C]	pIC50 [1]	pIC50 [2]	Compound	fold more effective on the orexin-1 receptors compared to orexin B (orexin-1 receptors)
170	–	–	Cn1nc(-c2ccccc2)c(COc2ccccc2C(=O)Nc2cnc3ccccc3c2)c1Cl [Example 65, 2-(3-Phenyl-5-chloro-1-methyl-1H-pyrazol-4-ylmethoxy)-N-quinolin-3-ylbenzamide]	–
–	6.17	7.24	Cn1nc(-c2cccnc2)c(CCc2ccccc2C(=O)Nc2cnc3ccccc3c2)c1Cl [2-[2-(5-Chloro-1-methyl-3-pyridin-3-yl-1H-pyrazol-4-yl)ethyl]-N-quinolin-3-ylbenzamide]	–
